Experimental findings from PubChem BioAssay AID330 (DTP/NCI, 2004) are described below.

Several values for one entry are separate records, joined by “and”; a condition that tells them apart may be missing. Equal entries are not always repeated. Inconclusive results and toxic doses are left out.

This assay concerns P388 leukemia ip, CD2F1 mice, survival T/C. Nature of the assay: NCI In Vivo Anticancer Drug Screen. Data for tumor model P388 Leukemia (intraperitoneal) in CD2F1 (CDF1) mice. The settings on record: endpoint: median survival time, higher = longer survival. In outline:
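Mice carrying the transplanted tumor received test compound or vehicle. Survival was recorded in each group, and the value is the treated-group measurement divided by that of the vehicle-treated control group.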

[1] abbreviates: dose: 100.0 mg/kg/injection, schedule: Q04DX003 (ip), vehicle: saline + Tween-80 + alcohol.
Where [2] appears, read: dose: 200.0 mg/kg/injection, schedule: Q04DX003 (ip), vehicle: saline + Tween-80 + alcohol.
[3] abbreviates: dose: 400.0 mg/kg/injection, schedule: Q04DX003 (ip), vehicle: saline + Tween-80 + alcohol.

On to `Nc1ncn(C2OC(CO)C(O)C2O)c(=O)n1` (stereo not drawn), for which the T/C was 122 % of control (dose: 0.19 mg/kg/injection, schedule: Q01DX009 (ip), vehicle: saline with Tween-80); 154 % of control (dose: 0.38 mg/kg/injection, schedule: Q01DX009 (ip), vehicle: saline with Tween-80); 163 % of control (dose: 0.75 mg/kg/injection, schedule: Q01DX009 (ip), vehicle: Klucel (hydroxypropylcellulose) (HPC)); 181 % of control (dose: 0.75 mg/kg/injection, schedule: Q01DX009 (ip), vehicle: saline with Tween-80); 166 % of control and 172 % of control and 173 % of control (dose: 0.75 mg/kg/injection, schedule: Q01DX009 (ip), vehicle: saline); 172 % of control (dose: 1.0 mg/kg/injection, schedule: Q01DX005 (ip), vehicle: saline). Moreover, the T/C (dose: 1.0 mg/kg/injection, schedule: Q01DX005 (ip), vehicle: water) is 150 % of control; the T/C (dose: 1.5 mg/kg/injection, schedule: Q01DX009 (ip), vehicle: Klucel (hydroxypropylcellulose) (HPC)) was 190 % of control; the T/C (dose: 1.5 mg/kg/injection, schedule: Q01DX009 (ip), vehicle: saline with Tween-80) is 195 % of control; the T/C (dose: 1.5 mg/kg/injection, schedule: Q01DX009 (ip), vehicle: saline) is 171 % of control and 185 % of control; the T/C (dose: 1.56 mg/kg/injection, schedule: Q01DX009 (ip), vehicle: saline) is 224 % of control; the T/C (dose: 2.0 mg/kg/injection, schedule: Q01DX005 (ip), vehicle: water) was 174 % of control. Further, the T/C is, setting by setting: (dose: 2.0 mg/kg/injection, schedule: Q01DX009 (ip), vehicle: saline) 209 % of control and 210 % of control; (dose: 2.59 mg/kg/injection, schedule: Q04DX003 (ip), vehicle: saline) 162 % of control; (dose: 2.7 mg/kg/injection, schedule: Q01DX009 (ip), vehicle: saline) 233 % of control; (dose: 3.0 mg/kg/injection, schedule: Q01DX009 (ip), vehicle: Klucel (hydroxypropylcellulose) (HPC)) 245 % of control; (dose: 3.13 mg/kg/injection, schedule: Q01DX009 (ip), vehicle: saline) 262 % of control; (dose: 4.0 mg/kg/injection, schedule: Q01DX005 (ip), vehicle: water) 215 % of control. The T/C was 245 % of control and 265 % of control (dose: 4.0 mg/kg/injection, schedule: Q01DX009 (ip), vehicle: saline); 178 % of control (dose: 4.32 mg/kg/injection, schedule: Q04DX003 (ip), vehicle: saline); 282 % of control (dose: 4.5 mg/kg/injection, schedule: Q01DX009 (ip), vehicle: saline); 95 % of control (dose: 6.0 mg/kg/injection, schedule: Q01DX009 (ip), vehicle: Klucel (hydroxypropylcellulose) (HPC)); 200 % of control (dose: 7.2 mg/kg/injection, schedule: Q04DX003 (ip), vehicle: saline); 252 % of control and 256 % of control and 290 % of control (dose: 8.0 mg/kg/injection, schedule: Q01DX005 (ip), vehicle: saline). For the same compound, the T/C was 66 % of control (dose: 8.0 mg/kg/injection, schedule: Q01DX005 (ip), vehicle: water); 160 % of control (dose: 8.64 mg/kg/injection, schedule: Q04DX002 (ip), vehicle: saline); 247 % of control (dose: 12.0 mg/kg/injection, schedule: Q04DX003 (ip), vehicle: saline); 162 % of control (dose: 12.5 mg/kg/injection, schedule: Q01DX005 (ip), vehicle: saline); 196 % of control (dose: 12.5 mg/kg/injection, schedule: Q01DX009 (ip), vehicle: saline); 175 % of control (dose: 14.4 mg/kg/injection, schedule: Q04DX002 (ip), vehicle: saline). Further, the T/C reads like this: (dose: 16.0 mg/kg/injection, schedule: Q01DX005 (ip), vehicle: saline) 273 % of control; (dose: 20.0 mg/kg/injection, schedule: Q01DX009 (ip), vehicle: saline) 223 % of control; (dose: 20.0 mg/kg/injection, schedule: Q04DX003 (ip), vehicle: saline) 279 % of control; (dose: 24.0 mg/kg/injection, schedule: Q04DX002 (ip), vehicle: saline) 200 % of control; (dose: 25.0 mg/kg/injection, schedule: Q01DX005 (ip), vehicle: saline) 176 % of control; (dose: 25.0 mg/kg/injection, schedule: Q01DX009 (ip), vehicle: saline) 196 % of control. In addition, the T/C runs as follows: (dose: 33.0 mg/kg/injection, schedule: Q01DX009 (ip), vehicle: saline) 233 % of control; (dose: 40.0 mg/kg/injection, schedule: Q04DX002 (ip), vehicle: saline) 217 % of control; (dose: 44.0 mg/kg/injection, schedule: Q01DX005 (ip), vehicle: saline) 178 % of control; (dose: 49.0 mg/kg/injection, schedule: Q01DX001 (ip), vehicle: saline) 165 % of control; (dose: 50.0 mg/kg/injection, schedule: Q01DX005 (ip), vehicle: saline) 189 % of control; (dose: 50.0 mg/kg/injection, schedule: Q01DX009 (ip), vehicle: saline) 215 % of control. The T/C runs as follows: (dose: 67.0 mg/kg/injection, schedule: Q01DX005 (ip), vehicle: saline) 181 % of control; (dose: 100.0 mg/kg/injection, schedule: Q01DX005 (ip), vehicle: saline) 182 % of control and 196 % of control; (dose: 110.0 mg/kg/injection, schedule: Q01DX001 (ip), vehicle: saline) 100 % of control; (dose: 150.0 mg/kg/injection, schedule: Q01DX005 (ip), vehicle: saline) 187 % of control; (dose: 200.0 mg/kg/injection, schedule: Q01DX005 (ip), vehicle: saline) 185 % of control and 214 % of control; (dose: 200.0 mg/kg/injection, schedule: Q01DX009 (ip), vehicle: saline) 110 % of control. For the same compound, the T/C (dose: 400.0 mg/kg/injection, schedule: Q01DX009 (ip), vehicle: saline) was 88 % of control.

For `CN(C)CCOc1ccc(/C=C2\CCc3ccccc3C2=O)cc1`, the T/C (dose: 60.0 mg/kg/injection, schedule: Q01DX005 (ip), vehicle: saline with Tween-80) was 97 % of control; the T/C (dose: 120.0 mg/kg/injection, schedule: Q01DX005 (ip), vehicle: saline with Tween-80) is 94 % of control; the T/C (dose: 240.0 mg/kg/injection, schedule: Q01DX005 (ip), vehicle: saline with Tween-80) was 95 % of control.

In the case of `CC(C)(C)B1N(c2ccccc2)N=NN1C(C)(C)C`, the T/C runs as follows: (dose: 60.0 mg/kg/injection, schedule: Q01DX005 (ip), vehicle: saline) 100 % of control; (dose: 120.0 mg/kg/injection, schedule: Q01DX005 (ip), vehicle: saline) 99 % of control and 88 % of control; (dose: 240.0 mg/kg/injection, schedule: Q01DX005 (ip), vehicle: saline) 96 % of control and 98 % of control.

Regarding `CCCCCCCCCCCC1=C(O)C(=O)C=C(O)C1=O`, the T/C by setting is: (dose: 6.25 mg/kg/injection, schedule: Q01DX009 (ip), vehicle: saline with Tween-80) 101 % of control; (dose: 12.5 mg/kg/injection, schedule: Q01DX009 (ip), vehicle: saline with Tween-80) 106 % of control; (dose: 25.0 mg/kg/injection, schedule: Q01DX009 (ip), vehicle: saline with Tween-80) 102 % of control.

Regarding `CO/C(C)=C1/C(=O)O/C(=C/Nc2ccccc2)C1=O`, the T/C (dose: 50.0 mg/kg/injection, schedule: Q01DX005 (ip), vehicle: saline with Tween-80) was 107 % of control; the T/C (dose: 100.0 mg/kg/injection, schedule: Q01DX005 (ip), vehicle: saline with Tween-80) was 107 % of control; the T/C (dose: 200.0 mg/kg/injection, schedule: Q01DX005 (ip), vehicle: saline with Tween-80) is 96 % of control.

As to `C=CN=NNc1ccccc1`, the T/C runs as follows: under setting [1], 105 % of control; under setting [2], 106 % of control; under setting [3], 110 % of control.

Consider `O=C(COc1ccc(Cl)cc1Cl)N1CCNC1=S`, for which the T/C was 100 % of control (dose: 50.0 mg/kg/injection, schedule: Q01DX009 (ip), vehicle: Klucel (hydroxypropylcellulose) (HPC)); 103 % of control (dose: 100.0 mg/kg/injection, schedule: Q01DX009 (ip), vehicle: Klucel (hydroxypropylcellulose) (HPC)); 100 % of control (dose: 200.0 mg/kg/injection, schedule: Q01DX009 (ip), vehicle: Klucel (hydroxypropylcellulose) (HPC)).

Take `CN(Cc1ccccc1)C(c1ccccc1)C1(c2ccccc2)Cc2ccccc2C(=O)O1` (stereo not drawn): the T/C was 87 % of control (dose: 50.0 mg/kg/injection, schedule: Q01DX005 (ip), vehicle: Klucel (hydroxypropylcellulose) (HPC)); 87 % of control (dose: 100.0 mg/kg/injection, schedule: Q01DX005 (ip), vehicle: Klucel (hydroxypropylcellulose) (HPC)); 87 % of control (dose: 200.0 mg/kg/injection, schedule: Q01DX005 (ip), vehicle: Klucel (hydroxypropylcellulose) (HPC)).

For `On1cc/c(=N\N=C\c2ccc(N(CCCl)CCCl)cc2)c2ccccc21`, the T/C under setting [1] was 99 % of control, the T/C under setting [2] was 106 % of control and the T/C under setting [3] is 102 % of control.
